Assay results taken from patent US20260008818A1, “CYCLIC PEPTIDE OR SALT THEREOF, AND USES THEREOF” (FUJIFILM Corporation, priority 2023, published 2026).
Bridge positions count the residues as written; N and C are the ends. Ends that are not written are not given here. COCH2 = acetyl group that carries the bridge

tested on: Recombinant Human FGFR1 alpha (IIIc) Fc Chimera Protein; test: Binding affinity of enzymatically synthesized cyclic peptide to FGFR by ELISA; conditions: luminescence signal at reaction concentration 10 nmol/L, SEQ ID NO: 39 standardized to 1, enzyme synthesis product
Experimental: The binding affinity of the cyclic peptide to FGFR was evaluated using an ELISA method.
The binding affinity of the enzymatically synthesized cyclic peptide to FGFR was measured by evaluating the amount of the cyclic peptide bound to FGFR by ELISA.
First, 5 ng of Recombinant Human FGFR1 alpha (IIIc) Fc Chimera Protein CF (R&D systems, 658-FR-050) was immobilized in each well of a 96-well plate, and blocked with Pierce Protein-Free (PBS) Blocking Buffer (Thermo, 37572), and a cyclic peptide diluted with Can Get Signal Immunoreaction Enhancer Solution I (TOYOBO, NKB-101) was then added and reacted at room temperature for 3 hours. After washing with 0.05% Tween 20-containing phosphate buffered saline (PBS), an anti-Myc antibody (Cell Signaling, 14038S) diluted with Can Get Signal Immunoreaction Enhancer Solution II (TOYOBO, NKB-101) was added and reacted at room temperature for 2 hours. After washing with 0.05% Tween 20-containing PBS, SuperSignal ELISA Femto Substrate (Thermo, 37075) was added, and the luminescence amount was measured. The dose-response relationship was calculated from using the difference between the luminescence amount in the well in which FGFR was immobilized and the luminescence amount in the well in which FGFR was not immobilized, and the concentration of the cyclic peptide at the time of reaction, and the binding affinity to FGFR was evaluated according to the following evaluation criteria. The evaluation result preferably satisfies the evaluation criteria A, B, or C.
In a case where a value of a luminescence signal emitted by the cyclic peptide set forth in SEQ ID NO: 39 at a reaction concentration of 10 nmol/L is standardized to 1, evaluation criteria of the luminescence signal value emitted by the cyclic peptide at a reaction concentration of 10 nmol/L is as follows. • A: 0.7 or more • B: 0.5 or more and less than 0.7 • C: 0.1 or more and less than 0.5 • D: less than 0.1.

| Substance | Evaluation result of binding affinity to FGFR |
| --- | --- |
| 365 (NCWGYTYIIPFNYISK(COCH2)T; thioether 2-16) [compound 365] | B (0.5 or more and less than 0.7) |
| 188 (HCSYERLQFHGHDAPFRVK(COCH2)V; thioether 2-19 via Ac) [compound 188] | A (0.7 or more) |
| 76 (QCSYERLQFHGHEAPFRVK(COCH2)V; thioether 2-19 (inferred)) [compound 76] | A (0.7 or more) |
| 177 (HCSYERLQFHGHPAPFRVK(COCH2)V; thioether 2-19 (inferred)) [compound 177] | A (0.7 or more) |
| 165 (HCSYERLQFIGHEAPFRVK(COCH2)V; thioether 2-19 (inferred)) [compound 165] | A (0.7 or more) |
| 60 (HCSYERLAFHGHEAPFRVK(COCH2)V; thioether 2-19 (inferred)) [compound 60] | B (0.5 or more and less than 0.7) |
| 330 (HCSYERLVFHGHIAPFWVK(COCH2)V; thioether 2-19 (inferred)) [compound 330] | A (0.7 or more) |
| 88 (HCYYERLQFHGHEAPFRVKV; not fully specified; Description of Artificial Sequence: Cyclic peptide) [compound 88] | A (0.7 or more) |
| 200 (HCSYERLQFHGHEAPFTVK(COCH2)V; thioether 2-19 via Ac; not fully specified) [compound 200] | A (0.7 or more) |
| 229 (HK(COCH2)VWERLIFLGHIAPFWVCR; thioether 2-19 (inferred)) [compound 229] | B (0.5 or more and less than 0.7) |
| 238 (HK(COCH2)TWERLIFLGHVAPFWVCR; thioether 2-19 (inferred)) [compound 238] | B (0.5 or more and less than 0.7) |
| 175 (HCSYERLQFRGHEAPFRVK(COCH2)V; thioether 2-19 (inferred)) [compound 175] | A (0.7 or more) |
| 194 (HCSYERLQFHGHEAPFFVK(COCH2)V; thioether 2-19 via Ac) [compound 194] | A (0.7 or more) |
| 232 (HK(COCH2)TYERLIFLGHIAPFWVCR; thioether 2-19 (inferred)) [compound 232] | B (0.5 or more and less than 0.7) |
| 228 (RK(COCH2)TWERLIFLGHIAPFWVCR; thioether 2-19 (inferred)) [compound 228] | C (0.1 or more and less than 0.5) |
| 308 (HCSYERLQFHGHEAPFRMK(COCH2)V; thioether 2-19 (inferred)) [compound 308] | C (0.1 or more and less than 0.5) |
| 322 (HCTWERLIFLGHIAPFLVK(COCH2)R; thioether 2-19 (inferred)) [compound 322] | C (0.1 or more and less than 0.5) |
| 54 (HCYERLQFHGHEAPFRVK(COCH2)V; thioether 2-18 (inferred)) [compound 54] | A (0.7 or more) |
| 150 (HCSYERLYFHGHEAPFRVK(COCH2)V; thioether 2-19 (inferred)) [compound 150] | A (0.7 or more) |
| 212 (HCSYERLQFHGHEAPFRVK(COCH2)I; thioether 2-19 via Ac; not fully specified) [compound 212] | A (0.7 or more) |
| 350 (LCSITRIQLFGYHAPFWHVVK(COCH2)S; thioether 2-21) [compound 350] | C (0.1 or more and less than 0.5) |
| 191 (HCSYERLQFHGHEAPFLVK(COCH2)V; thioether 2-19 via Ac) [compound 191] | A (0.7 or more) |
| 300 (HCSYERMQFHGHEAPFRVK(COCH2)V; thioether 2-19 (inferred)) [compound 300] | A (0.7 or more) |
| 235 (HK(COCH2)TWERLIFRGHIAPFWVCR; thioether 2-19 (inferred)) [compound 235] | A (0.7 or more) |

| Substance | Evaluation result of binding affinity to FGFR |
| --- | --- |
| 289 (HCSYERLQFHKHEAPFRVK(COCH2)V; thioether 2-19 (inferred)) [compound 289] | C (0.1 or more and less than 0.5) |
| 207 (HCSYERLQFHGHEAPFRSK(COCH2)V; thioether 2-19 via Ac; not fully specified) [compound 207] | C (0.1 or more and less than 0.5) |
| 149 (HCSYERLFFHGHEAPFRVK(COCH2)V; thioether 2-19 (inferred)) [compound 149] | A (0.7 or more) |
| 269 (VCYEQLVVWGHIAPFLTK(COCH2)H; thioether 2-18 (inferred)) [compound 269] | C (0.1 or more and less than 0.5) |
| 68 (PCSYERLQFHGHEAPFRVK(COCH2)V; thioether 2-19 (inferred)) [compound 68] | A (0.7 or more) |
| 41 (TCFVQLWFVDKPAPFLVK(COCH2)T; thioether 2-18 (inferred)) [compound 41] | B (0.5 or more and less than 0.7) |
| 182 (HCSYERLQFHGHYAPFRVK(COCH2)V; thioether 2-19 via Ac) [compound 182] | A (0.7 or more) |
| 112 (HCSYERLQFHGWEAPFRVK(COCH2)V; thioether 2-19 (inferred)) [compound 112] | B (0.5 or more and less than 0.7) |
| 135 (HCSYEPLQFHGHEAPFRVK(COCH2)V; thioether 2-19 (inferred)) [compound 135] | C (0.1 or more and less than 0.5) |
| 254 (WCQLRFQGHLAPFIILK(COCH2)H; thioether 2-17 (inferred)) [compound 254] | C (0.1 or more and less than 0.5) |
| 37 (CDRTLLYYRLSK(COCH2); thioether 1-12; not fully specified; printed as (C)-DRTLLYYRLS-(K(acetyl))) [compound 37] | D (less than 0.1) |
| 320 (HCTWERLIFLGHLAPFWVK(COCH2)R; thioether 2-19 (inferred)) [compound 320] | C (0.1 or more and less than 0.5) |
| 287 (HCSYERLKFHGHEAPFRVK(COCH2)V; thioether 2-19 (inferred)) [compound 287] | A (0.7 or more) |
| 183 (HCSYERLQFHGHWAPFRVK(COCH2)V; thioether 2-19 via Ac) [compound 183] | A (0.7 or more) |
| 176 (HCSYERLQFHGHGAPFRVK(COCH2)V; thioether 2-19 (inferred)) [compound 176] | C (0.1 or more and less than 0.5) |
| 63 (HCSYERLQFHGHEAAFRVK(COCH2)V; thioether 2-19 (inferred)) [compound 63] | C (0.1 or more and less than 0.5) |
| 285 (HCSYKRLQFHGHEAPFRVK(COCH2)V; thioether 2-19 (inferred)) [compound 285] | B (0.5 or more and less than 0.7) |
| 340 (HCLVKRLVSAWGELAPFWVK(COCH2)V; thioether 2-20) [compound 340] | C (0.1 or more and less than 0.5) |
| 146 (HCSYERLLFHGHEAPFRVK(COCH2)V; thioether 2-19 (inferred)) [compound 146] | A (0.7 or more) |
| 180 (HCSYERLQFHGHVAPFRVK(COCH2)V; thioether 2-19 via Ac) [compound 180] | A (0.7 or more) |
| 58 (HCSYARLQFHGHEAPFRVK(COCH2)V; thioether 2-19 (inferred)) [compound 58] | B (0.5 or more and less than 0.7) |
| 284 (HCKYERLQFHGHEAPFRVK(COCH2)V; thioether 2-19 (inferred)) [compound 284] | A (0.7 or more) |
| 147 (HCSYERLIFHGHEAPFRVK(COCH2)V; thioether 2-19 (inferred)) [compound 147] | A (0.7 or more) |
